From US12643887B2, “Heterocyclic derivatives with cardiomyocyte proliferation activity for treatment of heart diseases” (Tongji University, priority 2019, dated 2026)
pIC50: −log10 of the molar value. Where two headings read alike, the source gives them in different places.

What was measured:
human HIPK2 = molecular target: T1, human HIPK2 (Homo sapiens, UniProt Q9H2X6); assay: HIPK2 enzyme assay (ADP-Glo); type: biochemical
T1 construct: Recombinant human HIPK2 (1-640); GST (N); purchased SignalChem H04-11BG; host or cells: Sf9 insect cells
T1 sequence (Q9H2X6 1-640): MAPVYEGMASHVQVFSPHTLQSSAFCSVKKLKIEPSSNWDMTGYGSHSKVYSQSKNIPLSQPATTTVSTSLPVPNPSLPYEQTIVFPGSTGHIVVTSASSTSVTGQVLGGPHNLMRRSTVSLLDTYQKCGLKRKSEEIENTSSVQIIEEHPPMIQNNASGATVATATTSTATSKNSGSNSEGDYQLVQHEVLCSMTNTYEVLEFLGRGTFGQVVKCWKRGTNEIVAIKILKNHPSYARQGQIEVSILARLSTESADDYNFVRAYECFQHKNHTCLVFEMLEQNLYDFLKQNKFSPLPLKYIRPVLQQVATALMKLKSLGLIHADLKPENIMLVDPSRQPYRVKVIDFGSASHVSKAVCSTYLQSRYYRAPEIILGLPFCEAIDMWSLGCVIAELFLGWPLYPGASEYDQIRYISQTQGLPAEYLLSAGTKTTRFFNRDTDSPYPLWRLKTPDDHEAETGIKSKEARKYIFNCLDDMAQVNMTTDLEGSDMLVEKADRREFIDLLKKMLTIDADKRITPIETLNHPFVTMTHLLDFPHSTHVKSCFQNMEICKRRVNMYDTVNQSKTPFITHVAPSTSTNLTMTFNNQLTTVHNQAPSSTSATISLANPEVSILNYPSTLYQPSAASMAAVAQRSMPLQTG
In short: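 GST-tagged HIPK2 (1-640) from Sf9, 1 nM, preincubated 30 min at 25° C with inhibitor in 40 mM Tris pH 7.5, 20 mM MgCl2. Reaction ran 90 min at 25° C with GST-MBP substrate at 0.05 mg/ml and 5 μM ATP. ADP-Glo luminescence; IC50 by four-parameter logistic fit.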

human CLK1 = molecular target: T2, human CLK1 (Homo sapiens, UniProt P49759); assay: CLK1 enzyme assay (ADP-Glo); type: biochemical
T2 construct: Recombinant human CLK1 (129-end); GST (N); purchased SignalChem C57-11G; host or cells: Sf9 insect cells
T2 sequence (P49759 129-484 limits assumed): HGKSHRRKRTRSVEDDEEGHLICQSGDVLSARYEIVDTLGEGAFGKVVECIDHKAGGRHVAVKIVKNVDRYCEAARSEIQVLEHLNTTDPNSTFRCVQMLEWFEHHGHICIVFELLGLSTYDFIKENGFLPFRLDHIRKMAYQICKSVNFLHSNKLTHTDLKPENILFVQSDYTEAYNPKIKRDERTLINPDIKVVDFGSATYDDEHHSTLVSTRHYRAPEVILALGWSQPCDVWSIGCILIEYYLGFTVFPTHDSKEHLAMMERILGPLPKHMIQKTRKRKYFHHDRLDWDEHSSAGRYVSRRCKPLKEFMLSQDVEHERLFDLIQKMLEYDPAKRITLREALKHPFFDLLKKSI
In short: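 GST-tagged CLK1 (129-end, Sf9-expressed) at 16 nM was preincubated with compound 30 min at 25 °C in 40 mM Tris pH 7.5, 20 mM MgCl2, 0.1 mg/ml BSA, 50 μM DTT. Reaction with 2 μM substrate and 10 μM ATP ran 60 min at 25 °C. ADP-Glo luminescence gave IC50 by four-parameter fit.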

[1] = ADP-Glo, ATP 5 μM, read-out: HIPK2 IC50
[2] = ADP-Glo, ATP 10 μM, read-out: CLK1 IC50

Structure (SMILES) | pIC50 (human HIPK2; [1]) | pIC50 (human CLK1; [2]) | pIC50 (human HIPK2) | pIC50 (human CLK1)
CCN(C1=N/C(=C\c2ccc3c(c2)OCO3)C(=O)N1)c1ccccc1 [Example 4, (Z)-5-(benzo[d][1,3]dioxol-5-ylmethylene)-2-(ethyl(phenyl)amino)-3,5-dihydro-4H-imidazol-4-one] | < 5.00 | 6.00 to 7.00 | – | –
CC(=O)N(C1=N/C(=C\c2ccc3c(c2)OCO3)C(=O)N1)c1ccccc1 [Example 5, (Z)—N-(4-(benzo[d][1,3]dioxol-5-ylmethylene)-5-oxo-4,5-dihydro-1H-imidazol-2-yl)-N-phenylacetamide] | – | – | 5.00 to 6.00 | 6.00 to 7.00
CN(C1=N/C(=C\c2ccc3ncccc3c2)C(=O)N1)c1ccc2ncsc2c1 [Example 85, (Z)-2-(benzo[d]thiazol-6-yl(methyl)amino)-5-(quinolin-6-ylmethylene)-3,5-dihydro-4H-imidazol-4-one] | < 5.00 | 6.00 to 7.00 | – | –
CN(C1=N/C(=C\c2ccc3ncsc3c2)C(=O)N1)c1ccc2c(c1)ncn2C [Example 86, (Z)-5-(benzo[d]thiazol-6-ylmethylene)-2-(methyl(1-methyl-1H-benzo[d]imidazol-5-yl)amino)-3,5-dihydro-4H-imidazol-4-one] | 5.00 to 6.00 | 5.00 to 6.00 | – | –
CN(C1=N/C(=C\c2ccc3[nH]ccc3c2)C(=O)N1)c1ccc2ncsc2c1 [Example 87, (Z)-5-((1H-indol-5-yl)methylene)-2-(benzo[d]thiazol-6-yl(methyl)amino)-3,5-dihydro-4H-imidazol-4-one] | < 5.00 | < 5.00 | – | –
CN1C(=O)/C(=C/c2ccc3ncsc3c2)N=C1Nc1ccc2ncsc2c1 [Example 88, (Z)-2-(benzo[d]thiazol-6-ylamino)-5-(benzo[d]thiazol-6-ylmethylene)-3-methyl-3,5-dihydro-4H-imidazol-4-one] | < 5.00 | > 7.00 | – | –
COCCN(C1=N/C(=C\c2ccc3ncsc3c2)C(=O)N1)c1ccc2ncsc2c1 [Example 89, (Z)-2-(benzo[d]thiazol-6-yl(2-methoxyethyl)amino)-5-(benzo[d]thiazol-6-ylmethylene)-3,5-dihydro-4H-imidazol-4-one] | 6.00 to 7.00 | > 7.00 | – | –
Cc1nc2ccc(NC3=N/C(=C\c4ccc5ncsc5c4)C(=O)N3)cc2s1 [Example 90, (Z)-5-(benzo[d]thiazol-6-ylmethylene)-2-((2-methylbenzo[d]thiazol-6-yl)amino)-3,5-dihydro-4H-imidazol-4-one] | > 7.00 | > 7.00 | – | –
CC(=O)N(C1=N/C(=C\c2ccc3ncsc3c2)C(=O)N1)c1ccc2ncsc2c1 [Example 91, (Z)—N-(benzo[d]thiazol-6-yl)-N-(4-(benzo[d]thiazol-6-ylmethylene)-5-oxo-4,5-dihydro-1H-imidazol-2-yl)acetamide] | > 7.00 | > 7.00 | – | –
O=C1NC(Nc2ccc3ncsc3c2)=N/C1=C\c1cncs1 [Example 92, (Z)-2-(benzo[d]thiazol-6-ylamino)-5-(thiazol-5-ylmethylene)-3,5-dihydro-4H-imidazol-4-one] | 6.00 to 7.00 | > 7.00 | – | –
Cn1cnc2ccc(NC3=N/C(=C\c4ccc5ncsc5c4)C(=O)N3)cc21 [Example 93, (Z)-5-(benzo[d]thiazol-6-ylmethylene)-2-((1-methyl-1H-benzo[d]imidazol-6-yl)amino)-3,5-dihydro-4H-imidazol-4-one] | 6.00 to 7.00 | > 7.00 | – | –
O=C1NC(Nc2ccc3ncsc3c2)=N/C1=C\c1ccc2nccnc2c1 [Example 94, (Z)-2-(benzo[d]thiazol-6-ylamino)-5-(quinoxalin-6-ylmethylene)-3,5-dihydro-4H-imidazol-4-one] | < 5.00 | < 5.00 | – | –
O=C1NC(Nc2ccc3ncsc3c2)=N/C1=C\c1ccc2cn[nH]c2c1 [Example 95, (Z)-5-((1H-indazol-6-yl)methylene)-2-(benzo[d]thiazol-6-ylamino)-3,5-dihydro-4H-imidazol-4-one] | < 5.00 | < 5.00 | – | –
O=C1NC(=S)N/C1=C\c1ccc2sccc2c1 [Example 96, (Z)-5-(benzo[b]thiophen-5-ylmethylene)-2-thioxoimidazolidin-4-one] | < 5.00 | < 5.00 | – | –
O=C1NC(Nc2ccc3nc[nH]c3c2)=N/C1=C\c1ccc2ncsc2c1 [Example 97, (Z)-2-((1H-benzo[d]imidazol-6-yl)amino)-5-(benzo[d]thiazol-6-ylmethylene)-3,5-dihydro-4H-imidazol-4-one] | > 7.00 | 6.00 to 7.00 | – | –
Nc1ccc(NC2=N/C(=C\c3ccc4ncsc4c3)C(=O)N2)cc1 [Example 98, (Z)-2-((4-aminophenyl)amino)-5-(benzo[d]thiazol-6-ylmethylene)-3,5-dihydro-4H-imidazol-4-one] | 6.00 to 7.00 | > 7.00 | – | –
O=C1NC(N(Cc2ccccc2)c2ccc3ncsc3c2)=N/C1=C\c1ccc2ncsc2c1 [Example 99, (Z)-2-(benzo[d]thiazol-6-yl(benzyl)amino)-5-(benzo[d]thiazol-6-ylmethylene)-3,5-dihydro-4H-imidazol-4-one] | 6.00 to 7.00 | > 7.00 | – | –
CC(C)Nc1nc2ccc(NC3=N/C(=C\c4ccc5ncsc5c4)C(=O)N3)cc2s1 [Example 100, (Z)-5-(benzo[d]thiazol-6-ylmethylene)-2-((2-(isopropylamino)benzo[d]thiazol-6-yl)amino)-3,5-dihydro-4H-imidazol-4-one] | 6.00 to 7.00 | 5.00 to 6.00 | – | –
O=C1NC(Nc2ccc3sccc3c2)=N/C1=C\c1ccc2ncsc2c1 [Example 101, (Z)-2-(benzo[b]thiophen-5-ylamino)-5-(benzo[d]thiazol-6-ylmethylene)-3,5-dihydro-4H-imidazol-4-one] | < 5.00 | 6.00 to 7.00 | – | –
